Results on one compound are retold here after patent US11254665B2, “Crystalline sulfamide compound” (CHIA TAI TIANQING PHARMACEUTICAL GROUP CO., LTD., priority 2017, dated 2022).

One may read the IC50 as the midpoint of a concentration-inhibition curve. Low values mean greater potency in that assay, high ones weaker potency in that assay. The term Tmax denotes the time from dosing to the highest level.

The target in one data set is IDH1(R132C) (Homo sapiens, UniProt O75874, R132C). Put plainly: Enzyme assay (NADPH/diaphorase/resazurin), IDH1 mutant inhibition. The class given is biochemical. Conditions: 16 h pre-incubation with enzyme and NADPH at 23° C. The source says:
(§1) Resazurin is a traditional redox dye, and after a redox reaction, it can be reduced from a blue resazurin without fluorescence to a pink fluorescent substance, resorufin, which can be measured and quantified with relative fluorescence unit (RFU) of fluorophotometer (Ex=530-570 nm, Em=590-620 nm). At present, resazurin is widely used for determining the viability of bacteria, cells, etc., and the enzyme activity detection of oxidoreductase. We detected the decrease of cofactor NADPH to determine the inhibitory activity of a compound against IDH1m and detected the generation of cofactor NADPH to determine the inhibitory activity of a compound against IDH WT. […] The amount of the remaining cofactor NADPH after a specific reaction time was quantified via an easily detectable fluorophore.
(§2) The specific operation was as follows: 2.5 μl of the compound diluted in a 3-fold gradient was added to a 384-well plate, followed by adding 5 μl of the reaction buffer (20 mM Tris-HCl, pH 7.5; 150 mM NaCl; 10 mM MgCl2; 0.4 mg/mL BSA (Bovine Serum Albumin) and 2 mM DTT (dithiothreitol)) containing 40 nM IDH1 (R132H/R132C) and 20 μM NADPH. […] After incubating at 23° C. for 10 minutes, fluorescence values were determined through Flexstation 3 at Ex535/Em595. […]
(The colour change of resazurin is a common sign of viable cells or microbes.)

The target of another data set is IDH1(R132H) (Homo sapiens, UniProt O75874, R132H). Described as above. The class given is biochemical. Conditions: 16 h pre-incubation with enzyme and NADPH at 23° C.
Description: as §1, §2

Data set [1] in a line: Pharmacokinetic experiments, single peroral administration. It counts as in vivo. Conditions: rat; male SD rats, oral 5 mg/kg, suspension in 0.5% MC, 0.2% Tween80, plasma. The procedure:
Male SD rats were from Beijing Vital River Laboratory Animal Technology Co., Ltd., and divided into groups (3 rats per group). The rats were intragastrically administered with the test sample suspension (5 mg/kg) via a single peroral administration, respectively. The animals were fasted overnight before this study. The fasting time period was from 10 hours before administration to 4 hours after administration. Blood samples were taken at 0.25, 0.5, 1, 2, 4, 6, 8 and 24 hours after administration. After the rats were anesthetized with isoflurane using an anesthesia machine for small animal, and then 0.3 mL whole blood samples were taken from the fundus venous plexus. The blood samples were placed in heparin anticoagulant tubes, and centrifuged for 5 min at 4° C. and 4000 rpm. The plasma was transferred to centrifuge tubes, and stored at −80° C. till analysis. The samples in plasma were extracted through protein precipitation. The liquid extract was analyzed by LC-MS/MS, wherein HPLC conditions were as follows: flow rate 0.4 mL/min; mobile phase A: water/formic acid (99.9/0.1, v/v); mobile phase B: acetonitrile/formic acid (99.9/0.1, v/v); injection volume: 5 μL; column temperature: RT; autosampler temperature: RT; run time: 2.5 min.

Sequence of IDH1(R132H) (O75874 whole entry R132H): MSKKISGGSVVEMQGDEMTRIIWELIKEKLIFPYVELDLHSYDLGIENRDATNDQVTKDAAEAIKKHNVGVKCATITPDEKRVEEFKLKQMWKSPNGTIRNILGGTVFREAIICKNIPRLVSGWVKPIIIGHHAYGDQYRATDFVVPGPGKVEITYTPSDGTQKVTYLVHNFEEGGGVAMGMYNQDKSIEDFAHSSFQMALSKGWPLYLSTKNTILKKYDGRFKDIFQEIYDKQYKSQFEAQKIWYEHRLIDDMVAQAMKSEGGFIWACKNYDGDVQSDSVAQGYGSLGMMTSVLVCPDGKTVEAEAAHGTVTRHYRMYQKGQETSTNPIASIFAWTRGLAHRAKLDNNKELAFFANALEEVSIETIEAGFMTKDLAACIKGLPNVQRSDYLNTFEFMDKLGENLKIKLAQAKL
Sequence of IDH1(R132C) (O75874 whole entry R132C): as the sequence (O75874 whole entry R132H) above, with H132C counted along it

For the compound `N#Cc1ccnc(N2[C@H](C(=O)N(c3cccc(F)c3)[C@H](C(=O)NC3CC(F)(F)C3)c3ccccc3Cl)CCS2(=O)=O)c1` [Compound of formula I, (S)—N—((S)-1-(2-chlorophenyl)-2-((3,3-difluorocyclobutyl)amino)-2-oxoethyl)-2-(4-cyanopyridin-2-yl)-N-(3-fluorophenyl)-isothiazolidine-3-carboxamide 1,1-dioxide], the concentration for half-maximal inhibition (IC50) at IDH1(R132C) and on IDH1(R132H) was less than 20 nM each time. In data set [1], the Tmax amounted to 4 h.
